Source: patent US6479493B1, “Methods for treatment of type I diabetes” (Cell Pathways, Inc., priority 2001, dated 2002)
Read-outs that look alike come from different tables or passages of the source.

Assays:
[1] = molecular target: T1, cGMP binding sites of the GST-cGB-PDE5 fusion protein (Homo sapiens, UniProt O76074); assay: cGMP binding assay with GST-cGB-PDE5 fusion protein; conditions: for competition with cGMP binding at high concentration: 100 μM compound versus cGMP 2 μM
T1 construct: made in house; host or cells: E. coli BL21 (DE3)
From the text: RT-PCR method is used to obtain the cGB domain of PDE5 with forward and reverse primers designed from bovine PDE5A cDNA sequence (McAllister-Lucas L. M. et al, J. Biol. Chem. 268, 22863-22873, 1993) and the selection among PDE 1-10 families. 5′-3′, Inc. kits for total RNA followed by oligo (dT) column purification of mRNA are used with HT-29 cells. […] It is then cloned into pGEX-5X-3 glutathione-S-ransferase (GST) fusion vector (Pharmacia Biotech )with tac promoter, and EcoRI and XhoI cut sites. The fusion vector is then transfected into E. Coli BL21 (DE3) bacteria (Invitrogen). The transfected BL21 bacteria is grown to log phase, and then IPTG is added as an inducer. The induction is carried at 20° C. for 24 hrs. The bacteria are harvested and lysed. The soluble cell lysate is incubated with GSH conjugated Sepharose 4B (GSH-Sepharose 4B). The GST-cGB-pDE5 fusion protein can bind to the GSH-Sepharose beads, and the other proteins are washed off from beads with excessive cold PBS.
Then, the mixture is transferred to Brandel MB-24 cell harvester with GF/B as the filter membrane followed by 2 washes with 10 mL of cold 5 mM potassium buffer(pH 6.8). The membranes are then cut out and transferred to scintillation vials followed by the addition of 1 mL of H2O and 6 mL of Ready Safe™ liquid scintillation cocktail to each vial. The vials are counted on a Beckman LS 6500 scintillation counter.
The quenching by filter membrane or other debris are also calibrated.

U937 cells = assay: apoptosis induction of U937 cells, active caspase 3 indirect immunofluorescence; assay type: cell-based; conditions: 24 hours
Protocol: U937 cells (from ATCC Rockville, Md.) were grown in RPMI media supplemented with 5% FCS, glutamine, antibiotic/antimycotic and sodium pyruvate. Total RNA was isolated from two U937 cultures, one treated with 5 nM TPA for 48 hours and one grown in normal media as listed above, using the Rouche High Pure RNA Isolation Kit (cat #1 828 665) as per manufacturers protocol. cDNA was then synthesized from the total RNA using GibcoBRL SuperscriptII (Cat #18064-022) reverse transcriptase as per manufacturers protocol. The resulting cDNA was used as a template for RT-PCR reactions using primer sets specific for PDE2 (forward: […], reverse: […]) or PDE5 (forward: […], reverse: […]). mRNA for PDE2 and 5 were both present in the untreated U937 cells. Upon treatment with TPA, the relative amounts of PDE2 mRNA increased 5 fold. Therefore, U937 cells treated with TPA and driven to differentiate into an activated macrophage like state have elevated levels of PDE2 mRNA (see FIG. 1).
The presence of PDE2 and PDE5 protein within U937 cells was confirmed by indirect immunofluorescence (IIF). U937 cells were cultured as above. Two U937 cultures, one grown in the presence of 5 nM TPA for 48 hours and one grown in normal media were processed. All cultures were collected by centrifugation (Shandon Cytospin, 2 minutes @600 rpm) onto poly-L lysine-coated slides and immediately fixed in fresh 3% paraformaldehyde buffered in PBS for 10 minutes. Adherent cultures were grown on coverslips and fixed as above. Cells were permeablized in 0.2% Triton-100 for 2 minutes. Slides were blocked with blocking buffer (5% goat serum, 5% glycerol, 1% gelatin from cold water fish skin and 0.04% NaN3 in PBS) for 1 hour at room temperature.
Slides were then incubated for 1 hour at 37° C. in a humid chamber with antibodies specific for PDE2 (generated in a sheep against the peptide […]) or PDE5 (generated in sheep against the peptide […]). […]
The level of apoptosis in U937 cells was quantified by scoring 500 consecutive cells for the presence of active caspase 3. […]

native bovine PDE5 = native bovine PDE5 (Bos taurus, UniProt Q28156); conditions: read-out: Kd of cGMP binding, native bovine PDE5; cited from earlier work

Compound	competition with cGMP in binding to the cGMP binding sites of GST-cGB-PDE5 ([1]; 3H-cGMP 2 μM, 22° C., 1 hour)	further results
CCCCOC1C2OP(=O)(O)OCC2OC1n1cnc2c(N)ncnc21 (stereo not drawn) [2′-O-butyl-cAMP]	did not compete with cGMP in binding	–
O=c1ccn([C@@H]2O[C@@H]3COP(=O)(O)O[C@H]3[C@H]2O)c(=O)[nH]1 [cUMP, cyclic UMP]	did not compete with cGMP in binding	–
Nc1nc2c(nc(Br)n2[C@@H]2O[C@@H]3COP(=O)(O)O[C@H]3[C@H]2O)c(=O)[nH]1 [Example 8-bromo-cGMP, 8-bromo-cGMP]	–	competition with cGMP binding at high concentration [1]: can partially compete with cGMP
O=C([O-])C1CCN(c2nc(NCc3ccc4c(c3)OCO4)c3cc(Cl)ccc3n2)CC1.[Na+] [Example E4021]	None of the PDE5 inhibitors showed any competition with cGMP in binding	–
Nc1ncnc2c1ncn2[C@@H]1O[C@@H]2COP(=O)(O)O[C@H]2[C@H]1O [Cyclic AMP]	–	competition with cGMP in binding to the cGMP binding sites of GST-cGB-PDE5 [1]: did not compete with cGMP in binding
CCCc1nn(C)c2c(=O)[nH]c(-c3cc(S(=O)(=O)N4CCN(C)CC4)ccc3OCC)nc12 [sildenafil]	–	levels of apoptosis (active caspase 3) (U937 cells; 0.3 nM): No increase in the levels of apoptosis compared to normal background was observed
Nc1nc2c(ncn2[C@@H]2O[C@@H]3COP(=O)(O)O[C@H]3[C@H]2O)c(=O)[nH]1 [cGMP, cyclic 3′,5′-guanosine monophosphate]	–	Kd ([1]; read-out: Kd of cGMP binding to GST-cGB-PDE5 fusion protein, two cGMP binding sites): 1600 ± 200 nM; Kd (native bovine PDE5): 1300 nM
COc1ccc(C2CNC(=O)C2)cc1OC1CCCC1 (stereo not drawn) [rolipram]	–	levels of apoptosis (active caspase 3) (U937 cells; 0.5 uM): No increase in the levels of apoptosis compared to normal background was observed
CCCOc1ccccc1-c1nc2nn[nH]c2c(=O)[nH]1 [zaprinast]	None of the PDE5 inhibitors showed any competition with cGMP in binding	–
CC1=C(CC(=O)O)c2cc(F)ccc2/C1=C\c1ccc(S(C)(=O)=O)cc1 [exisulind]	None of the PDE5 inhibitors showed any competition with cGMP in binding	–
CSc1ccc(/C=C2/C(C)=C(CC(=O)O)c3cc(F)ccc32)cc1 [Sulindac sulfide]	None of the PDE5 inhibitors showed any competition with cGMP in binding	–
O=c1[nH]cnc2c1ncn2[C@@H]1O[C@@H]2COP(=O)(O)O[C@H]2[C@H]1O [Cyclic IMP]	–	competition with cGMP binding at high concentration [1]: can partially compete with cGMP
Nc1ccn([C@@H]2O[C@@H]3COP(=O)(O)O[C@H]3[C@H]2O)c(=O)n1 [cCMP]	did not compete with cGMP in binding	–
CCCCOC1C2OP(=O)(O)OCC2OC1n1cnc2c(=O)[nH]c(N)nc21 (stereo not drawn) [2′-O-butyl-cGMP]	did not compete with cGMP in binding	–
